Data reported in patent US6906175B2, “Production of adenine nucleotide translocator (ANT), novel ANT ligands and screening assays therefor” (priority 1998, dated 2005).

How the values were obtained:
[1] = biological target: T1, T. ni/huANT3 mitochondria (Homo sapiens, UniProt P12236); assay: 125I-compound 24 competition binding (Tube Assay), mitochondria from T. ni cells expressing huANT3; conditions: mitochondria from T. ni cells expressing huANT3; FIGS. 12, 14, 15
T1 construct: expressed in transfected cells; host or cells: Trichoplusia ni cells infected with recombinant baculovirus (cells prepared by PharMingen); isolated mitochondria
T1 sequence (P12236 1-298): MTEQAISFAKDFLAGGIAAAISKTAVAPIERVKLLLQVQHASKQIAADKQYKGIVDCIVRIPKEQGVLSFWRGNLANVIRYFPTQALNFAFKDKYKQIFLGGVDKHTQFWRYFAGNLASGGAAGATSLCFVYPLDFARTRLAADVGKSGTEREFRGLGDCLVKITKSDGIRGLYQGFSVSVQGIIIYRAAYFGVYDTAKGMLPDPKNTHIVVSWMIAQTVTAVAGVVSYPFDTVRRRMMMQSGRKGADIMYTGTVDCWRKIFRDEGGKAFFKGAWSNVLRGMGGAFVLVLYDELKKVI
Procedure: Atractyloside analogs (Example 6; Table 1; see also Examples 7-9) were also used in pseudo-homologous competition binding assays using T. ni/huANT3 mitochondria or bovine mitochondria. Mitochondria from noninfected T. ni cells, or T. ni cells infected with a baculovirus expressing huANT3 (see Example 3) were prepared as follows: […] cells were prepared by a subcontractor (PharMingen, San Diego, Calif.) as portions of about 250 mg of cells per tube. Each portion was suspended in 1 ml of MSB with protease inhibitors (leupeptin, final concentration 10 ug/ml; pepstatin, final concentration 10 ug/ml; aprotinin, final concentration, 2 ug/ml; phenylmethylsulfonyl fluoride, [PMSF], final concentration, 100 μM; all from Sigma Chemical Co., St. Louis, Mo.). The resuspended cell suspensions were frozen and thawed twice, then homogenized using a rotating teflon-coated probe and a close-fitting glass container (10 passes). The cellular homogenate was centrifuged (3,700 rpm, approximately 1,500×g) at 4° C. for 5 minutes; this supernatant from the first spin was saved. The pellet was washed with about 500 μl of MSB with protease inhibitors, centrifuged (3,800 rpm, approximately 1,600×g) at 4° C. for 5 minutes, and supernatant from this spin was combined with the supernatant from the first spin. […]
The mitochondrial preparations were divided into aliquots (typically, 50μl for T. ni mitochondria or 20 μl for bovine mitochondria) and then either used directly in assays or flash frozen and stored at −80° C. The total protein content in the mitochondrial preparations was determined using the enhanced protocol (30 minutes at 60° C.; see http://www.ruf.rice.edu/˜bioslabs/methods/protein/BCA.html) of the bicinchoninic acid (BCA) assay (available in kit form from Pierce, Rockford, Ill.). […]
Unbound ^125I-compound 24 was removed by aspiration. […] The resultant pellets were aspirated and the radioactivity (dpm) in each was determined by gamma counting.

[2] = biological target: T2, bovine mitochondria (ANT) (Bos taurus, UniProt P02722); assay: 125I-compound 24 competition binding (Tube Assay), beef heart mitochondria; conditions: FIGS. 11, 13, 16
T2 construct: from tissue; host or cells: bovine heart mitochondria
T2 sequence (P02722 2-298 limits assumed): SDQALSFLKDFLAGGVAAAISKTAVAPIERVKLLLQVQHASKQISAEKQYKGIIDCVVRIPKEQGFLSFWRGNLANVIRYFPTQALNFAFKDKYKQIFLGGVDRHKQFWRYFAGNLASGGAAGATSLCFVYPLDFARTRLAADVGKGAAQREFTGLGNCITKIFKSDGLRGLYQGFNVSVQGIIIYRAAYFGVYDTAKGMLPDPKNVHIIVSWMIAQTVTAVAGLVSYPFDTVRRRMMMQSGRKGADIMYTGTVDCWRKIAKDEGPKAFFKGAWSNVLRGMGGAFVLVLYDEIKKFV
Procedure: Bovine mitochondria were prepared as follows: Essentially all of the fat and cholesterol […] was removed from two bovine hearts which were then cut into 1-inch cubes. The cubes were ground in a meat grinder using the fine setting. Three hundred (300) […] portions of the ground heart were weighed out and, to each was added 400 ml of Isolation Buffer (IB; 250 mM sucrose, 1 mM sodium succinate, 0.2 mM K^+EDTA, 10 mM Tris-base, pH 7.8). (All buffers were filter sterilized, and column buffers were degassed, and, unless otherwise noted, all steps were carried out at 0 to 4° C. on ice or in pre-cooled rotors and centrifuges.) The preparations were mixed in a blender two times for 15 seconds on high setting and, in between and after blends, the pH was adjusted to 7.8 with 2M Tris-base. The homogenate was centrifuged for 20 minutes at 1,200×g, and the supernatant was poured through two layers of cheese cloth and adjusted to pH 7.8 with 2M Tris-base. The supernatant was then centrifuged for 30 minutes at […]. The supernatant was decanted, and the buff-colored outer pellet was dislodged with about 10 ml of IB and discarded. The brown inner pellet (heavy mitochondria) was resuspended in IB (about 10 ml per pellet). The pellets were homogenized in a glass-teflon homogenizer (2 passes at high drill speed). Samples were combined and centrifuged for 30 minutes at 11,000×g. The supernatant was decanted, and the pellets were resuspended in 60 ml of IB per 900 gm of ground heart. This centrifugation step was repeated and the pellets were finally resuspended in IB (60 ml per 900 gm of ground heart). One kilogram of beef heart typically yields about one (1) gram of mitochondria
The mitochondrial preparations were divided into aliquots (typically, 50μl for T. ni mitochondria or 20 μl for bovine mitochondria) and then either used directly in assays or flash frozen and stored at −80° C. The total protein content in the mitochondrial preparations was determined using the enhanced protocol (30 minutes at 60° C.; see http://www.ruf.rice.edu/˜bioslabs/methods/protein/BCA.html) of the bicinchoninic acid (BCA) assay (available in kit form from Pierce, Rockford, Ill.).
In the “Tube Assay,” mitochondria (from about 1 to 10 μg of total protein) were resuspended in 100 μl of Tris-KCl buffer with 0.1% BSA, pH 7.4. ^125I-labeled compound 24 (Example 11) was added to a final concentration of 0.5 nM. When used, competitors were added at these concentration ranges: unlabeled atractyloside or compound 24 final concentration from 5 nM to 10 μM; unlabeled ADP (a lower affinity competitor) was added at a final concentration of 500 nM to 1 mM.
The reaction mixes were incubated on ice for 60 minutes and then pelleted by centrifugation (approximately 16,000×g) for 11 minutes at 4° C.
Unbound ^125I-compound 24 was removed by aspiration. The pellets were contact-washed with Tris-KCl buffer, pH 7.4, and recentrifuged. The resultant pellets were aspirated and the radioactivity (dpm) in each was determined by gamma counting.

His-tagged huANT3 = biological target: T3, His-tagged huANT3 (Homo sapiens, UniProt P12236); assay: Binding of [32P]ATP to purified His-tagged huANT3 on Ni-agarose magnetic beads; design: made in house; host or cells: baculovirus-infected Sf9 cells; conditions: for cpm bound by: huANT3-Producing Cells: 2 hr
T3 sequence (P12236 1-298): T1 sequence (P12236 1-298)
Procedure: (§1) His-tagged huANT3 protein was purified from baculovirus-infected Sf9 solubilized cell lysates using Ni-agarose magnetic beads; Sf9 cells that had not been infected were used as negative controls. The beads were incubated with [^32P]ATP (1 or 100 μM) for 2 hr. The beads were washed and then counted to determine the amount of bound ATP. […] Binding saturation had essentially been achieved with 1 μM ATP.

[3] = test system: sham transformed E. coli membranes; assay: Saturation binding of [32P]ATP to E. coli membranes, sham transformed (vector only) cells; conditions: 25 μg membrane protein, 2 hr room temperature
Procedure: (§2) Following arabinose induction, transformed or sham transformed (vector only) E coli were collected by centrifugation at 2000 g for 10 min. The bacterial pellets were resuspended in MSB, to which lysozyme (100 μg/ml) was added. After 20 min at room temperature, the lysates were subjected to one freeze-thaw cycle followed by sonication as described above. The resultant membrane preparation was used for binding assays.
(§3) […] The membranes with bound ATP were sedimented by centrifugation at 5000 g for 5 min, and washed once with binding buffer. Membrane pellets were then mixed with 5 ml scintillation cocktail and counted.

[4] = Binding of [32P]ATP to Ni-agarose bead material from control (uninfected) Sf9 cells; conditions: 2 hr
Procedure: as §1

GST-huANT3 = biological target: T4, GST-huANT3 (Homo sapiens, UniProt P12236); assay: ATP binding to agarose-glutathione beads incubated with solubilized bacterial lysate
T4 construct: Gly-Ser-Pro-Gly-Ile-Leu-Met, where “Met” indicates the amino acid encoded by the translation initiation codon of huANT3; made in house; host or cells: E. coli (solubilized lysate, captured on agarose-glutathione beads)
T4 sequence (P12236 1-298): T1 sequence (P12236 1-298)
Procedure: Agarose-glutathione beads were incubated with solubilized (using Dnase, Rnase and 0.1% Triton X-100, see Example 1, section D) bacterial lysate (see Example 2), and substituted for the E. coli membranes in binding assays. Best results (i.e., more specific binding) were seen when the beads were preincubated with bovine serum albumin (BSA, 0.1%) Specific ATP binding (1,070 cpm) was also observed in this experiment (compare to nonspecific binding of 279 cpm in the presence of 10 mM non-radiolabeled ATP).

Sf9/huANT3 mitochondria = biological target: T5, Sf9/huANT3 mitochondria (Homo sapiens, UniProt P12236); assay: Homologous competition of [32P]ATP binding to Sf9/huANT3 mitochondria; conditions: 25 μg mitochondrial protein per assay; FIG. 7
T5 construct: expressed in transfected cells; host or cells: Spodoptera frugiperda Sf9 cells infected with recombinant baculovirus; isolated mitochondria
T5 sequence (P12236 1-298): T1 sequence (P12236 1-298)
Procedure: To estimate maximal binding and the extent of overexpression of the huANT3, 25 μg of membrane protein was incubated with varying amounts of [^32P]ATP (1-500 μM) in binding buffer (120 mM KCl, 10 mM Tris, 1 mM EDTA, pH 7.4) for 2 hr at room temperature. The membranes with bound ATP were sedimented by centrifugation at 5000 g for 5 min, and washed once with binding buffer. Membrane pellets were then mixed with 5 ml scintillation cocktail and counted.
Sf9 cells expressing huANT3 were grown in spinner flasks. The cells were harvested by centrifugation at 2,000 g for 5 min. The cell pellet was resuspended in MSB and subjected to 3 freeze-thaw cycles. Cell membranes and debris were removed by centrifugation at 600 g for 5 min; mitochondria were collected by centrifuging the supernatant at 20,000 g for 15 min. The mitochondrial pellets were suspended in MSB, and used for binding assays as described above. Homologous competition of [^32P]ATP binding was performed using 25 μg mitochondrial protein per assay.

[5] = biological target: T6, GST-huANT3 recombinantly produced in E. coli (membranes) (Homo sapiens, UniProt P12236); assay: Saturation binding of [32P]ATP to E. coli membranes, huANT3-producing cells; conditions: for cpm bound by: huANT3-Producing Cells: 25 μg membrane protein, 2 hr room temperature
T6 construct: Gly-Ser-Pro-Gly-Ile-Leu-Met, where “Met” indicates the amino acid encoded by the translation initiation codon of huANT3; made in house; host or cells: E. coli (crude membrane preparation)
T6 sequence (P12236 1-298): T1 sequence (P12236 1-298)
Procedure: as §2, §3

Structure (SMILES): Nc1ncnc2c1ncn2[C@@H]1O[C@H](COP(=O)(O)OP(=O)(O)O)[C@@H](O)[C@H]1O [ADP, adenosine diphosphate]
- competitive inhibition of 125I-compound 24 binding (in words) [1]: low affinity
- competitive inhibition of 125I-compound 24 binding (in words) [2]: low affinity

Structure (SMILES): Nc1ncnc2c1ncn2[C@@H]1O[C@H](COP(=O)(O)OP(=O)(O)OP(=O)(O)O)[C@@H](O)[C@H]1O [ATP, adenosine triphosphate]
- ATP concentration at which binding saturation had essentially been achieved (His-tagged huANT3): 1 µM
- cpm bound by: huANT3-Producing Cells (His-tagged huANT3; [ATP] 1.0 uM): 149 cpm
- cpm bound by: huANT3-Producing Cells (His-tagged huANT3; [ATP] 100 uM): 160 cpm
- cpm bound by: Sham Transformed Cells ([3]; [ATP] 0.1 uM): 109 cpm
- cpm bound by: Sham Transformed Cells ([3]; [ATP] 0.5 uM): 95 cpm
- cpm bound by: Sham Transformed Cells ([3]; [ATP] 1.0 uM): 147 cpm
- cpm bound by: Sham Transformed Cells ([3]; [ATP] 5.0 uM): 123 cpm
- cpm bound by: Sham Transformed Cells ([3]; [ATP] 10 uM): 214 cpm
- cpm bound by: Sham Transformed Cells ([3]; [ATP] 50 uM): 549 cpm
- cpm bound by: Sham Transformed Cells ([3]; [ATP] 100 uM): 718 cpm
- cpm bound by: Sham Transformed Cells ([3]; [ATP] 500 uM): 2,140 cpm
- cpm bound by: Control (Uninfected) Cells ([4]; [ATP] 1.0 uM): 43 cpm
- cpm bound by: Control (Uninfected) Cells ([4]; [ATP] 100 uM): 30 cpm
- Specific ATP binding (GST-huANT3; beads preincubated with BSA 0.1%): 1,070 cpm
- nonspecific binding (GST-huANT3; in the presence of 10 mM non-radiolabeled ATP): 279 cpm
- Kd (Sf9/huANT3 mitochondria): 13 µM
- cpm bound by: huANT3-Producing Cells ([5]; [ATP] 0.1 uM): 191 cpm
- cpm bound by: huANT3-Producing Cells ([5]; [ATP] 0.5 uM): 49 cpm
- cpm bound by: huANT3-Producing Cells ([5]; [ATP] 1.0 uM): 325 cpm
- cpm bound by: huANT3-Producing Cells ([5]; [ATP] 10 uM): 263 cpm
- cpm bound by: huANT3-Producing Cells ([5]; [ATP] 50 uM): 2,727 cpm
- cpm bound by: huANT3-Producing Cells ([5]; [ATP] 100 uM): 5,772 cpm
- cpm bound by: huANT3-Producing Cells ([5]; [ATP] 500 uM): 9,715 cpm
- Kd ([5]; from saturation binding data of Table 2, read-out: affinity of the ATP binding): ~6 µM
